According to US10508085B2, “Compounds and methods for IDO and TDO modulation, and indications therefor” (Plexxikon Inc., priority 2016, dated 2019):
Like-named read-outs stand apart in the source and are kept apart here.

Legend:
[1] = target: T1, human TDO (TDO-expressing HEK293 cells) (Homo sapiens, UniProt P48775); experiment: Cell based kynurenine assay, TDO-expressing HEK293 cell clones; conditions: TDO-expressing HEK293 cells, geometric mean, read-out: HEK293 TDO Kynurenine GMean IC50 (μM) (Cellular Assay)
T1 construct: expressed in transfected cells
T1 sequence (P48775 whole entry): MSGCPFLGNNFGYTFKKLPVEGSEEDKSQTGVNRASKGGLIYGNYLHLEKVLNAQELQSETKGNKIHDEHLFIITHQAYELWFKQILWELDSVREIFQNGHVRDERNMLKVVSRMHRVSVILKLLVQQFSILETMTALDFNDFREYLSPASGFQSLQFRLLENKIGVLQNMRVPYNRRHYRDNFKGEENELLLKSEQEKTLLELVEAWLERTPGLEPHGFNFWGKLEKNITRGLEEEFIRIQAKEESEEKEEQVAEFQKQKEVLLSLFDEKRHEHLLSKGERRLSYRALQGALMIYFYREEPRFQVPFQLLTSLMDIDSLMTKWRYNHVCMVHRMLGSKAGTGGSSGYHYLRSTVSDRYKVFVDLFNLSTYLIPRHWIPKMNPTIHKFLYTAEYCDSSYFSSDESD
How it was run: (§1)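 Stably transfected HEK293 clones expressing human IDO1 or TDO (CMV promoter) were seeded at 2.5×10^4 cells/well and treated with serially diluted compounds for 24 h. Supernatant kynurenine was then measured, and % inhibition versus DMSO-treated cell and media-only controls was fitted by nonlinear regression to give IC50.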

[2] = target: T2, human IDO (IDO1-expressing HEK293 cells) (Homo sapiens, UniProt P14902); experiment: Cell based kynurenine assay, IDO1-expressing HEK293 cell clones; conditions: IDO1-expressing HEK293 cells, geometric mean, read-out: HEK293 IDO1 Kynurenine GMean IC50 (μM) (Cellular Assay)
T2 construct: expressed in transfected cells
T2 sequence (P14902 whole entry): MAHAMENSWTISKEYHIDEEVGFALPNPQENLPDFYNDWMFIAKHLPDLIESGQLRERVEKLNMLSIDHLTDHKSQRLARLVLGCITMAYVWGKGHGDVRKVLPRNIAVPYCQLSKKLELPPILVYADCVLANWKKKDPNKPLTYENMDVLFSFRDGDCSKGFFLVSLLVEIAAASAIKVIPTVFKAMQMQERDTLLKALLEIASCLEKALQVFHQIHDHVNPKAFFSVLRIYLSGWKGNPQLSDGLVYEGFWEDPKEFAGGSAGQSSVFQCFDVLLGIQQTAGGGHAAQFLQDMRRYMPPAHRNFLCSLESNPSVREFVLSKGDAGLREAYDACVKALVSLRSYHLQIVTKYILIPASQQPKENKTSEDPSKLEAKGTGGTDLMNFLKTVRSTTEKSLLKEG
How it was run: as §1

[3] = target: T3, Human Indoleamine 2,3-dioxygenase (IDO) (Homo sapiens, UniProt P14902); experiment: Human IDO enzymatic assay (kynurenine level); assay type: biochemical; conditions: 6 nM IDO, 10 μM L-Trp; geometric mean; read-out: IDO1 GMean: IC50 (μM) (Biochemical Assay)
T3 construct: His tag (N); made in house; host or cells: E. coli
T3 sequence (P14902 whole entry): as above
How it was run: (§2)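 N-terminally His-tagged enzymes expressed in E. coli were run in 50 mM sodium phosphate pH 6.5 with 10 mM ascorbate, catalase and Tween 20. IDO: 6 nM enzyme, 10 μM L-Trp, 5 μM methylene blue, 20 min RT. TDO: 1 nM enzyme, 350 μM L-Trp, 0.4 μM methylene blue, 70 min RT.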

[4] = target: T4, Human Tryptophan 2,3-dioxygenase (TDO) (Homo sapiens, UniProt P48775); experiment: Human TDO enzymatic assay (kynurenine level); assay type: biochemical; conditions: 1 nM TDO, 350 μM L-Trp; geometric mean; read-out: TDO GMean: IC50 (μM) (Biochemical Assay)
T4 construct: His tag (N); made in house; host or cells: E. coli
T4 sequence (P48775 whole entry): as the sequence (P48775 whole entry) above
How it was run: as §2

Row | Structure (SMILES) | IC50 ([1]; 24 hours incubation) [µM] | IC50 ([2]; 24 hours incubation) [µM] | IC50 [3] [µM] | IC50 [4] [µM] | IC50 ([1]; 24 hours) [µM] | IC50 ([2]; 24 hours) [µM]
1 | CC(C)C(=O)N1CCC(C(F)(F)C(O)c2cc(Cl)cc3cn[nH]c23)CC1 (centres unmarked) [Compound P-0351, 1-(4-(2-(5-chloro-1H-indazol-7-yl)-1,1-difluoro-2-hydroxyethyl)piperidin-1-yl)-2-methylpropan-1-one] | 0.0001 to 10 | 0.0001 to 10 | 0.0001 to 10 | 0.0001 to 10 |  | 
2 | CC(C)(C1CCN(C(=O)Cc2ccc(Cl)c(F)c2)CC1)[C@H](O)c1cc(Cl)cc2cn[nH]c12 [Compound P-0518, (S)-1-(4-(1-(5-chloro-1H-indazol-7-yl)-1-hydroxy-2-methylpropan-2-yl)piperidin-1-yl)-2-(4-chloro-3-fluorophenyl) ethan-1-one] |  |  | 0.0001 to 10 | 0.0001 to 10 | 0.0001 to 10 | 0.0001 to 10
3 | CC(C)(C)OC(=O)N1CCC(C(C)(C)[C@H](O)c2c(F)c(Cl)cc3cn[nH]c23)CC1 [Compound P-0383, tert-butyl (S)-4-(1-(5-chloro-6-fluoro-1H-indazol-7-yl)-1-hydroxy-2-methylpropan-2-yl)piperidine-1-carboxylate] | 0.0001 to 10 | 0.0001 to 10 | 0.0001 to 10 | 0.0001 to 10 |  | 
4 | OC(c1cc(F)cc2cn[nH]c12)C1CCCCC1 (centres unmarked) [Compound P-0042, cyclohexyl(5-fluoro-1H-indazol-7-yl)methanol] | 0.0001 to 10 | 0.0001 to 10 | 0.0001 to 10 | 0.0001 to 10 |  | 
5 | CC(=O)N1CCC(C(C)(C)C(O)c2cc(Cl)cc3[nH]ncc23)CC1 (centres unmarked) [Compound P-0172, 1-(4-(1-(6-chloro-1H-indazol-4-yl)-1-hydroxy-2-methylpropan-2-yl)piperidin-1-yl)ethan-1-one] | 0.0001 to 10 | 0.0001 to 10 | 0.0001 to 10 | 0.0001 to 10 |  | 
6 | CC1(C(O)c2c(F)c(Cl)c(F)c3cn[nH]c23)CC(F)(F)C1 (centres unmarked) [Compound P-0112, (5-chloro-4,6-difluoro-1H-indazol-7-yl)(3,3-difluoro-1-methylcyclobutyl)methanol] | 0.0001 to 10 | 0.0001 to 10 | 0.0001 to 10 | 0.0001 to 10 |  | 
7 | CC(C)OC(=O)N1CCC(C(C)(C)C(O)c2cc(Cl)cc3cn[nH]c23)CC1 (centres unmarked) [Compound P-0323, isopropyl 4-(1-(5-chloro-1H-indazol-7-yl)-1-hydroxy-2-methylpropan-2-yl)piperidine-1-carboxylate] | 0.0001 to 10 | 0.0001 to 10 | 0.0001 to 10 | 0.0001 to 10 |  | 
8 | COCCNC(=O)N1CCC(C(C)(C)C(O)c2cc(Cl)cc3cn[nH]c23)CC1 (centres unmarked) [Compound P-0388, 4-(1-(5-chloro-1H-indazol-7-yl)-1-hydroxy-2-methylpropan-2-yl)-N-(2-methoxyethyl) piperidine-1-carboxamide] | 0.0001 to 10 | 0.0001 to 10 | 0.0001 to 10 | 0.0001 to 10 |  | 
9 | CC(C)(C1CCN(C(=O)Nc2ccc(C#N)cc2)CC1)C(O)c1cc(Cl)cc2cn[nH]c12 (centres unmarked) [Compound P-0168, 4-(1-(5-chloro-1H-indazol-7-yl)-1-hydroxy-2-methylpropan-2-yl)-N-(4-cyanophenyl)piperidine-1-carboxamide] | 0.0001 to 10 | 0.0001 to 10 | 0.0001 to 10 | 0.0001 to 10 |  | 
10 | O[C@H](c1cc(Cl)cc2cn[nH]c12)C12CCC(CC1)CC2 [Compound P-0381, (S)-bicyclo[2.2.2] octan-1-yl(5-chloro-1H-indazol-7-yl)methanol] | 0.0001 to 10 | 0.0001 to 10 | 0.0001 to 10 | 0.0001 to 10 |  | 
11 | CC(C)(C1CCN(C(=O)NC2CCN(S(C)(=O)=O)CC2)CC1)C(O)c1cc(Cl)cc2cn[nH]c12 (centres unmarked) [Compound P-0450, 4-(1-(5-chloro-1H-indazol-7-yl)-1-hydroxy-2-methylpropan-2-yl)-N-(1-(methylsulfonyl)piperidin-4-yl)piperidine-1-carboxamide] |  |  | 0.0001 to 10 | 0.0001 to 10 | 0.0001 to 10 | 0.0001 to 10
12 | CC(C)(O)CNC(=O)N1CCC(C(F)(F)C(O)c2cc(Cl)cc3cn[nH]c23)CC1 (centres unmarked) [Compound P-0466, 4-(2-(5-chloro-1H-indazol-7-yl)-1,1-difluoro-2-hydroxyethyl)-N-(2-hydroxy-2-methylpropyl) piperidine-1-carboxamide] |  |  | 0.0001 to 10 | 0.0001 to 10 | 0.0001 to 10 | 0.0001 to 10
13 | O=C(Nc1ccc(F)cc1)N1CCC(C(F)(F)C(O)c2cc(Cl)cc3cn[nH]c23)CC1 (centres unmarked) [Compound P-0151, 4-(2-(5-chloro-1H-indazol-7-yl)-1,1-difluoro-2-hydroxyethyl)-N-(4-fluorophenyl)piperidine-1-carboxamide] | 0.0001 to 10 | 0.0001 to 10 | 0.0001 to 10 | 0.0001 to 10 |  | 
14 | CC(C)(C1CCN(C(=O)NS(=O)(=O)c2ccccc2)CC1)C(O)c1cc(Cl)cc2cn[nH]c12 (centres unmarked) [Compound P-0353, 4-(1-(5-chloro-1H-indazol-7-yl)-1-hydroxy-2-methylpropan-2-yl)-N-(phenylsulfonyl) piperidine-1-carboxamide] | 0.0001 to 10 | 0.0001 to 10 | 0.0001 to 10 | 0.0001 to 10 |  | 
15 | CC(C)(C1CCN(C(N)=O)CC1)C(O)c1cc(Cl)cc2cn[nH]c12 (centres unmarked) [Compound P-0325, 4-(1-(5-chloro-1H-indazol-7-yl)-1-hydroxy-2-methylpropan-2-yl)piperidine-1-carboxamide] | 0.0001 to 10 | 0.0001 to 10 | 0.0001 to 10 | 0.0001 to 10 |  | 
16 | NC(=O)N1CCC(C2(C(O)c3cc(Cl)cc4cn[nH]c34)CC2)CC1 (centres unmarked) [Compound P-0156, 4-(1-((5-chloro-1H-indazol-7-yl)(hydroxy)methyl)cyclopropyl)piperidine-1-carboxamide] | 0.0001 to 10 | 0.0001 to 10 | 0.0001 to 10 | 0.0001 to 10 |  | 
17 | CC1(C(O)c2cccc3cncn23)CCCCC1 (centres unmarked) [Compound P-0061, imidazo[1,5-a]pyridin-5-yl(1-methylcyclohexyl)methanol] | > 10 | 0.0001 to 10 | 0.0001 to 10 | 0.0001 to 10 |  | 
18 | OC(c1cccc2cncn12)C12CC3CC(CC(C3)C1)C2 [Compound P-0087, ((1S,3s)-adamantan-1-yl)(imidazo[1,5-a]pyridin-5-yl)methanol] | > 10 | 0.0001 to 10 | 0.0001 to 10 | 0.0001 to 10 |  | 
19 | OC(c1c2c(cc3cn[nH]c13)CC2)C1CC2CCC1C2 (centres unmarked) [Compound P-0293, bicyclo[2.2.1]heptan-2-yl(5,6-dihydro-1H-cyclobuta[f]indazol-7-yl)methanol] | 0.0001 to 10 | 0.0001 to 10 | 0.0001 to 10 | 0.0001 to 10 |  | 
20 | CC1(C(O)c2cc(F)cc3cn[nH]c23)CCCCC1 (centres unmarked) [Compound P-0041, (5-fluoro-1H-indazol-7-yl)(1-methylcyclohexyl)methanol] | 0.0001 to 10 | 0.0001 to 10 | 0.0001 to 10 | 0.0001 to 10 |  | 
21 | OC1(c2cc(Cl)cc3cn[nH]c23)[C@H]2CCC[C@@H]1CCC2 (stereo partly drawn) [Compound P-0407, (1R,5S)-9-(5-chloro-1H-indazol-7-yl)bicyclo[3.3.1] nonan-9-ol] |  |  | 0.0001 to 10 | 0.0001 to 10 | 0.0001 to 10 | > 10
22 | CC(C)(C1CCN(C(=O)NCCC(F)(F)F)CC1)C(O)c1cc(Cl)cc2cn[nH]c12 (centres unmarked) [Compound P-0472, 4-(1-(5-chloro-1H-indazol-7-yl)-1-hydroxy-2-methylpropan-2-yl)-N-(3,3,3-trifluoropropyl) piperidine-1-carboxamide] |  |  | 0.0001 to 10 | 0.0001 to 10 | 0.0001 to 10 | 0.0001 to 10
23 | O=C(CN1CCCS1(=O)=O)N1CCC(C(F)(F)C(O)c2cc(Cl)cc3cn[nH]c23)CC1 (centres unmarked) [Compound P-0489, 1-(4-(2-(5-chloro-1H-indazol-7-yl)-1,1-difluoro-2-hydroxyethyl)piperidin-1-yl)-2-(1,1-dioxidoisothiazolidin-2-yl)ethan-1-one] |  |  | 0.0001 to 10 | 0.0001 to 10 | 0.0001 to 10 | 0.0001 to 10
24 | CC(C)(C1CCN(S(C)(=O)=O)CC1)C(O)c1cc(Cl)cc2cn[nH]c12 (centres unmarked) [Compound P-0198, 1-(5-chloro-1H-indazol-7-yl)-2-methyl-2-(1-(methylsulfonyl)piperidin-4-yl)propan-1-ol] | 0.0001 to 10 | 0.0001 to 10 | 0.0001 to 10 | 0.0001 to 10 |  | 
25 | CN1CCN(Cc2ccc(NC(=O)N3CCC(C(C)(C)C(O)c4cc(Cl)cc5cn[nH]c45)CC3)cc2)CC1 (centres unmarked) [Compound P-0491, 4-(1-(5-chloro-1H-indazol-7-yl)-1-hydroxy-2-methylpropan-2-yl)-N-(4-((4-methylpiperazin-1-yl)methyl)phenyl) piperidine-1-carboxamide] |  |  | 0.0001 to 10 | 0.0001 to 10 | 0.0001 to 10 | 0.0001 to 10
26 | CC(C)(C)C(O)c1c(F)c(Cl)c(F)c2cn[nH]c12 (centres unmarked) [Compound P-0248, 1-(5-chloro-4,6-difluoro-1H-indazol-7-yl)-2,2-dimethylpropan-1-ol] | > 10 | 0.0001 to 10 | 0.0001 to 10 | 0.0001 to 10 |  | 
